{"source": "paper PMC7385619", "about": "“A triple action CDK4/6-PI3K-BET inhibitor with augmented cancer cell cytotoxicity” (Cell Discovery, 2020)", "assay_in_all_cases": "KINOMEscan assay (Eurofins DiscoverX)", "type_in_all_cases": "binding", "key": {"kinome (kinase panel) [1]": {"biological_target": "T1, kinome (kinase panel) (Homo sapiens, UniProt P78356)", "T1 construct": "purchased Eurofins DiscoverX", "details": "PIP5K2B (Entrez PIP4K2B); 1000 nM; read-out: Percent Control"}, "kinome (kinase panel) [2]": {"biological_target": "T2, kinome (kinase panel) (Homo sapiens, UniProt Q08881)", "T2 construct": "purchased Eurofins DiscoverX", "details": "ITK; 1000 nM; read-out: Percent Control"}, "kinome (kinase panel) [3]": {"biological_target": "T3, kinome (kinase panel) (Homo sapiens, UniProt P80192)", "T3 construct": "purchased Eurofins DiscoverX", "details": "MLK1 (Entrez MAP3K9); 1000 nM; read-out: Percent Control"}, "kinome (kinase panel) [4]": {"biological_target": "T4, kinome (kinase panel) (Homo sapiens, UniProt O94804)", "T4 construct": "purchased Eurofins DiscoverX", "details": "LOK (Entrez STK10); 1000 nM; read-out: Percent Control"}, "kinome (kinase panel) [5]": {"biological_target": "T5, kinome (kinase panel) (Homo sapiens, UniProt Q9NYY3)", "T5 construct": "purchased Eurofins DiscoverX", "details": "PLK2; 1000 nM; read-out: Percent Control"}, "kinome (kinase panel) [6]": {"biological_target": "T6, kinome (kinase panel) (Homo sapiens, UniProt P00533, L858R)", "T6 construct": "purchased Eurofins DiscoverX", "T6 sequence (P00533 25-1210 L858R)": "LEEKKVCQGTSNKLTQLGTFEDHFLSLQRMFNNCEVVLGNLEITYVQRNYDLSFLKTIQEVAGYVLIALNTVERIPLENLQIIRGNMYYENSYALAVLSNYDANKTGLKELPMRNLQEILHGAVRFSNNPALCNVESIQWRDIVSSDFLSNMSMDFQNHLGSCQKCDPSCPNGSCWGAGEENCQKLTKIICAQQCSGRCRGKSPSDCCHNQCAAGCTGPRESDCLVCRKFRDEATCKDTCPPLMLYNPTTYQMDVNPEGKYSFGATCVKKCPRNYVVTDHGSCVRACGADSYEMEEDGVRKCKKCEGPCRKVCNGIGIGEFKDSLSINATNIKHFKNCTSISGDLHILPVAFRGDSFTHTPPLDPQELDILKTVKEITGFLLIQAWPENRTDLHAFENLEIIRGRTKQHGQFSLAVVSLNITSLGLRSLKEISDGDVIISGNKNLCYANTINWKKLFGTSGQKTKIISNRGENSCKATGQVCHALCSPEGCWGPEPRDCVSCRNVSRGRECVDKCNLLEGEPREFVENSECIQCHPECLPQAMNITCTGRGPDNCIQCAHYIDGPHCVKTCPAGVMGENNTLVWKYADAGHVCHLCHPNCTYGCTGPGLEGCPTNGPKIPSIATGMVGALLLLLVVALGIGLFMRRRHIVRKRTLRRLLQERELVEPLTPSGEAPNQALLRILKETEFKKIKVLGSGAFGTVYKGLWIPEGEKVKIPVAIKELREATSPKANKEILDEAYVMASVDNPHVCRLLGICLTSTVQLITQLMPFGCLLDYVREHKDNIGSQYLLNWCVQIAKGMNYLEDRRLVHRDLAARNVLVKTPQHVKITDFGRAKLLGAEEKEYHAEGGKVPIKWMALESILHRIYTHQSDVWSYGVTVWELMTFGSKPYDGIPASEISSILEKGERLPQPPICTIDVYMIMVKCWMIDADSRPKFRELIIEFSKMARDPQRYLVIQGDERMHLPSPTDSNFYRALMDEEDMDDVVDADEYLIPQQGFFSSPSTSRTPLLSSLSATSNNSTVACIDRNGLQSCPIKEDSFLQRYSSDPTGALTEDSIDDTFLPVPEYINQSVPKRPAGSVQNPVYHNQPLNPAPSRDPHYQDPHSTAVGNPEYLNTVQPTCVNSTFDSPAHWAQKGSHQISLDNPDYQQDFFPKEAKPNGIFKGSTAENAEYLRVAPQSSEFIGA", "details": "[…]; 1000 nM; read-out: Percent Control"}, "kinome (kinase panel) [7]": {"biological_target": "T7, kinome (kinase panel) (Homo sapiens, UniProt P68400)", "T7 construct": "purchased Eurofins DiscoverX", "details": "CSNK2A1; 1000 nM; read-out: Percent Control"}, "kinome (kinase panel) [8]": {"biological_target": "T8, kinome (kinase panel) (Homo sapiens, UniProt Q9HC98)", "T8 construct": "purchased Eurofins DiscoverX", "details": "NEK6; 1000 nM; read-out: Percent Control"}, "kinome (kinase panel) [9]": {"biological_target": "T9, kinome (kinase panel) (Homo sapiens, UniProt P15735)", "T9 construct": "purchased Eurofins DiscoverX", "details": "PHKG2; 1000 nM; read-out: Percent Control"}, "kinome (kinase panel) [10]": {"biological_target": "T10, kinome (kinase panel) (Homo sapiens, UniProt O14578)", "T10 construct": "purchased Eurofins DiscoverX", "details": "CIT; 1000 nM; read-out: Percent Control"}, "kinome (kinase panel) [11]": {"biological_target": "T11, kinome (kinase panel) (Homo sapiens, UniProt Q9Y616)", "T11 construct": "purchased Eurofins DiscoverX", "details": "IRAK3; 1000 nM; read-out: Percent Control"}, "kinome (kinase panel) [12]": {"biological_target": "T12, kinome (kinase panel) (Homo sapiens, UniProt Q9H1R3)", "T12 construct": "purchased Eurofins DiscoverX", "details": "MYLK2; 1000 nM; read-out: Percent Control"}, "kinome (kinase panel) [13]": {"biological_target": "T13, kinome (kinase panel) (Plasmodium falciparum, UniProt P61075)", "T13 construct": "purchased Eurofins DiscoverX", "details": "PFPK5(P.falciparum) (Entrez MAL13P1.279); 1000 nM; read-out: Percent Control"}, "kinome (kinase panel) [14]": {"biological_target": "T14, kinome (kinase panel) (Homo sapiens, UniProt P10721, D816V)", "T14 construct": "purchased Eurofins DiscoverX", "T14 sequence (P10721 26-976 D816V)": "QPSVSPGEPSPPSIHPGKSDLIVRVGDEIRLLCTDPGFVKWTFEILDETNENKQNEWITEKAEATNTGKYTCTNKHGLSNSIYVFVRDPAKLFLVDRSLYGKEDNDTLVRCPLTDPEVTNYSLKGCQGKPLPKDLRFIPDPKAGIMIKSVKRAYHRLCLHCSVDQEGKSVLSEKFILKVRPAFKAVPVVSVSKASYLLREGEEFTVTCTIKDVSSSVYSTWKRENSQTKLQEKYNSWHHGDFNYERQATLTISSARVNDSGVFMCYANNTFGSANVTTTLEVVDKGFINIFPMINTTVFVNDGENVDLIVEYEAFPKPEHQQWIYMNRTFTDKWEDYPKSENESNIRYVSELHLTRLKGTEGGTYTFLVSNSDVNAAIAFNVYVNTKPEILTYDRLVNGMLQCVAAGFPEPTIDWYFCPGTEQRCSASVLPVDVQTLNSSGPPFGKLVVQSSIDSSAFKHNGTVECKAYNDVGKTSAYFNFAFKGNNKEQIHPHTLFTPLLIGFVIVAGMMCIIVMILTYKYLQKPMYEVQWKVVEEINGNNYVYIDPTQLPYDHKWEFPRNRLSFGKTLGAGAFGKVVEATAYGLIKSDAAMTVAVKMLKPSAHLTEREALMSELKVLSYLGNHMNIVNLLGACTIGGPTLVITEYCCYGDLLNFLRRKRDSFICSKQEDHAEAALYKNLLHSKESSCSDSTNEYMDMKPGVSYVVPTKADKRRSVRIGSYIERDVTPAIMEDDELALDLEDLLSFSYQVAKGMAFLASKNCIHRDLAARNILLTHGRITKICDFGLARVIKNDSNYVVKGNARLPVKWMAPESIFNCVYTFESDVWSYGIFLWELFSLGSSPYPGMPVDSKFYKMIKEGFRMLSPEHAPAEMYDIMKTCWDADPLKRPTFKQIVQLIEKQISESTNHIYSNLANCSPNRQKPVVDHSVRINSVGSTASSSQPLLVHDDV", "details": "[…]; 1000 nM; read-out: Percent Control"}, "kinome (kinase panel) [15]": {"biological_target": "T15, kinome (kinase panel) (Homo sapiens, UniProt O75716)", "T15 construct": "purchased Eurofins DiscoverX", "details": "STK16; 1000 nM; read-out: Percent Control"}, "kinome (kinase panel) [16]": {"biological_target": "T16, kinome (kinase panel) (Homo sapiens, UniProt O00329)", "T16 construct": "purchased Eurofins DiscoverX", "details": "PIK3CD; 1000 nM; read-out: Percent Control"}, "kinome (kinase panel) [17]": {"biological_target": "T17, kinome (kinase panel) (Homo sapiens, UniProt Q9BX84)", "T17 construct": "purchased Eurofins DiscoverX", "details": "TRPM6; 1000 nM; read-out: Percent Control"}, "kinome (kinase panel) [18]": {"biological_target": "T18, kinome (kinase panel) (Homo sapiens, UniProt P37023)", "T18 construct": "purchased Eurofins DiscoverX", "T18 sequence (P37023 22-503)": "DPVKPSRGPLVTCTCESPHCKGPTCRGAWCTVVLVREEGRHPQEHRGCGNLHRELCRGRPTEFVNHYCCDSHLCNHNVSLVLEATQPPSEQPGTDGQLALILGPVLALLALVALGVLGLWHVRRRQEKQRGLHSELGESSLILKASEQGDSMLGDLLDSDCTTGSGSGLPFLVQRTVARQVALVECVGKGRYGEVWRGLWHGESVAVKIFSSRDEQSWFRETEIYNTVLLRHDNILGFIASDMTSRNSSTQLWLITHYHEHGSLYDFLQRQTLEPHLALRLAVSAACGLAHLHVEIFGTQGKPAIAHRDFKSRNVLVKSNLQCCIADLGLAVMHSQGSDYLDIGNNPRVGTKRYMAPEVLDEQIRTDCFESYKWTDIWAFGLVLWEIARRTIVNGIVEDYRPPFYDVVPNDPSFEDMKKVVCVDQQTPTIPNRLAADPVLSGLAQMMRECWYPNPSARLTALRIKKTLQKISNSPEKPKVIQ", "details": "ACVRL1; 1000 nM; read-out: Percent Control"}, "kinome (kinase panel) [19]": {"biological_target": "T19, kinome (kinase panel) (Homo sapiens, UniProt Q8WTQ7)", "T19 construct": "purchased Eurofins DiscoverX", "details": "GRK7; 1000 nM; read-out: Percent Control"}, "kinome (kinase panel) [20]": {"biological_target": "T20, kinome (kinase panel) (Homo sapiens, UniProt Q9UM73, C1156Y)", "T20 construct": "purchased Eurofins DiscoverX", "details": "[…]; 1000 nM; read-out: Percent Control"}, "kinome (kinase panel) [21]": {"biological_target": "T21, kinome (kinase panel) (Homo sapiens, UniProt Q9H2G2)", "T21 construct": "purchased Eurofins DiscoverX", "details": "SLK; 1000 nM; read-out: Percent Control"}, "kinome (kinase panel) [22]": {"biological_target": "T22, kinome (kinase panel) (Homo sapiens, UniProt Q16832)", "T22 construct": "purchased Eurofins DiscoverX", "details": "DDR2; 1000 nM; read-out: Percent Control"}, "kinome (kinase panel) [23]": {"biological_target": "T23, kinome (kinase panel) (Homo sapiens, UniProt O95835)", "T23 construct": "purchased Eurofins DiscoverX", "details": "LATS1; 1000 nM; read-out: Percent Control"}, "kinome (kinase panel) [24]": {"biological_target": "T24, kinome (kinase panel) (Homo sapiens, UniProt Q15303)", "T24 construct": "purchased Eurofins DiscoverX", "details": "ERBB4; 1000 nM; read-out: Percent Control"}, "kinome (kinase panel) [25]": {"biological_target": "T25, kinome (kinase panel) (Homo sapiens, UniProt Q13164)", "T25 construct": "purchased Eurofins DiscoverX", "details": "ERK5 (Entrez MAPK7); 1000 nM; read-out: Percent Control"}, "kinome (kinase panel) [26]": {"biological_target": "T26, kinome (kinase panel) (Homo sapiens, UniProt P17948)", "T26 construct": "purchased Eurofins DiscoverX", "details": "FLT1; 1000 nM; read-out: Percent Control"}, "kinome (kinase panel) [27]": {"biological_target": "T27, kinome (kinase panel) (Homo sapiens, UniProt P25098)", "T27 construct": "purchased Eurofins DiscoverX", "details": "GRK2 (Entrez ADRBK1); 1000 nM; read-out: Percent Control"}, "kinome (kinase panel) [28]": {"biological_target": "T28, kinome (kinase panel) (Homo sapiens, UniProt Q06187)", "T28 construct": "purchased Eurofins DiscoverX", "details": "BTK; 1000 nM; read-out: Percent Control"}, "kinome (kinase panel) [29]": {"biological_target": "T29, kinome (kinase panel) (Homo sapiens, UniProt P10721, A829P)", "T29 construct": "purchased Eurofins DiscoverX", "T29 sequence (P10721 26-976 A829P)": "as the sequence (P10721 26-976 D816V) above, with V791D, A804P counted along it", "details": "[…]; 1000 nM; read-out: Percent Control"}, "kinome (kinase panel) [30]": {"biological_target": "T30, kinome (kinase panel) (Homo sapiens, UniProt Q6DT37)", "T30 construct": "purchased Eurofins DiscoverX", "T30 sequence (Q6DT37 whole entry)": "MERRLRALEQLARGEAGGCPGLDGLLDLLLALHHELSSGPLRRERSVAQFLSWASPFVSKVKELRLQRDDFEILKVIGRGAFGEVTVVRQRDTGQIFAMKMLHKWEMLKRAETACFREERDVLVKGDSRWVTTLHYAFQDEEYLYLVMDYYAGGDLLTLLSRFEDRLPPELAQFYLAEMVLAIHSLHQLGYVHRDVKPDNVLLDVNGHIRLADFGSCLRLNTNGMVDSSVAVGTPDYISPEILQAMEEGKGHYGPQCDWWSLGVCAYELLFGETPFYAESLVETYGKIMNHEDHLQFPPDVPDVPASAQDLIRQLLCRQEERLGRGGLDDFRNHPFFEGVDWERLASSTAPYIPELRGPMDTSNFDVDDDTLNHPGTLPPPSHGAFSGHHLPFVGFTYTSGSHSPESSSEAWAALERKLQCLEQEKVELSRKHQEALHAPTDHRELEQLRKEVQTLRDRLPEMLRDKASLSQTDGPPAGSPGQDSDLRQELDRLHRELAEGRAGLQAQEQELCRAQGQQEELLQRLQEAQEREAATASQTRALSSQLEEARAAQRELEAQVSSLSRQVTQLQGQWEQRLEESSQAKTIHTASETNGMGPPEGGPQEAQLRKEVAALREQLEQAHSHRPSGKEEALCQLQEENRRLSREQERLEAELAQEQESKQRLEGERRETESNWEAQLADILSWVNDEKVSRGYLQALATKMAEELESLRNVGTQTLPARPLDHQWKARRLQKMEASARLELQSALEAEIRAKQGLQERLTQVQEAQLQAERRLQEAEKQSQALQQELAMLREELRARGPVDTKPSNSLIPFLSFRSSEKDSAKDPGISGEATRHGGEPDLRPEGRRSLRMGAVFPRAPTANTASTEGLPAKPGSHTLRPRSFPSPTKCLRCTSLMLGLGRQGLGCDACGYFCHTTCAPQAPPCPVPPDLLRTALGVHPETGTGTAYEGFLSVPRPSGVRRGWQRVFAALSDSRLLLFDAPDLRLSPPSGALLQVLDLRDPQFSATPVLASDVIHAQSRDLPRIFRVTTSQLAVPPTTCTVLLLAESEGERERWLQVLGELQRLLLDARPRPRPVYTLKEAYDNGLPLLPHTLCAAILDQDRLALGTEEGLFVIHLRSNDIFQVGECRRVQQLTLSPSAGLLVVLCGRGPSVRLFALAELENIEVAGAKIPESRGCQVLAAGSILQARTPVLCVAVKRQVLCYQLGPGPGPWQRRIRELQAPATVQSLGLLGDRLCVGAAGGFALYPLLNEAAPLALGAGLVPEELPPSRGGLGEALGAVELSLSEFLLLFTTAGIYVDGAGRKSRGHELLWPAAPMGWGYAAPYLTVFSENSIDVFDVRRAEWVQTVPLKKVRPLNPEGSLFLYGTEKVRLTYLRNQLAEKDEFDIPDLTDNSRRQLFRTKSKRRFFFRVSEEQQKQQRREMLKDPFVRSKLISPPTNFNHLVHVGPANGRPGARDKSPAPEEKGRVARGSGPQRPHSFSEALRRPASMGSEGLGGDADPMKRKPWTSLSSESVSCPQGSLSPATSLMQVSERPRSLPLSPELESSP", "details": "DMPK2 (Entrez CDC42BPG); 1000 nM; read-out: Percent Control"}, "kinome (kinase panel) [31]": {"biological_target": "T31, kinome (kinase panel) (Homo sapiens, UniProt Q99755)", "T31 construct": "purchased Eurofins DiscoverX", "details": "PIP5K1A; 1000 nM; read-out: Percent Control"}, "kinome (kinase panel) [32]": {"biological_target": "T32, kinome (kinase panel) (Homo sapiens, UniProt Q86YV6)", "T32 construct": "purchased Eurofins DiscoverX", "T32 sequence (Q86YV6 whole entry)": "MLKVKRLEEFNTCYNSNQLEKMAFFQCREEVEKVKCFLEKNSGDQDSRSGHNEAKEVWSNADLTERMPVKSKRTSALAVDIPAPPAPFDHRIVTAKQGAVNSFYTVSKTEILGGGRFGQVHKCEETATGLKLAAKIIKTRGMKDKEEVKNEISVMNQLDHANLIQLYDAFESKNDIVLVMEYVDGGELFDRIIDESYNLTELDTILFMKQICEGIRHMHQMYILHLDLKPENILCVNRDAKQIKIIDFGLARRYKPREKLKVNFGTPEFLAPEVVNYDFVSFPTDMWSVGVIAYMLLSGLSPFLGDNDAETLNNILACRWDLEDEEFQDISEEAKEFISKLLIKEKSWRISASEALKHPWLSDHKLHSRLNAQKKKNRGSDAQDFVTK", "details": "MYLK4; 1000 nM; read-out: Percent Control"}, "kinome (kinase panel) [33]": {"biological_target": "T33, kinome (kinase panel) (Homo sapiens, UniProt P31749)", "T33 construct": "purchased Eurofins DiscoverX", "T33 sequence (P31749 whole entry)": "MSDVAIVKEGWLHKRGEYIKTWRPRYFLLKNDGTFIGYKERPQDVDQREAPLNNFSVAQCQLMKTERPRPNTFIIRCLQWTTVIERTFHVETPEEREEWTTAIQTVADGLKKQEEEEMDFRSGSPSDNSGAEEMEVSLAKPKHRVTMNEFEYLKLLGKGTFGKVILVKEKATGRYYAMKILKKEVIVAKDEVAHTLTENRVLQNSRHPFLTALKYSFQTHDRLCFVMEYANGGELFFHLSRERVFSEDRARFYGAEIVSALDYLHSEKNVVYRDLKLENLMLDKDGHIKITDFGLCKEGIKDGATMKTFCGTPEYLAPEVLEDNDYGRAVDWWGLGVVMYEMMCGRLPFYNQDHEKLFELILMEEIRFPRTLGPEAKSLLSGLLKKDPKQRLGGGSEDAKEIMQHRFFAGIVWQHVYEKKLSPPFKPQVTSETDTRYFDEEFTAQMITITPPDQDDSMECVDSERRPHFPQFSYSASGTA", "details": "AKT1; 1000 nM; read-out: Percent Control"}}, "data": [{"smiles": "CN(C)C(=O)c1cc2cnc(Nc3ccc(-c4csc5c(=O)cc(N6CCOCC6)oc45)cc3)nc2n1C1CCCC1", "note": "[SRX3177]", "values": [{"measurement": "remaining binding at 1 µM", "setting": "kinome (kinase panel) [1]", "result": 48, "unit": "%"}, {"measurement": "remaining binding at 1 µM", "setting": "kinome (kinase panel) [2]", "result": 90, "unit": "%"}, {"measurement": "remaining binding at 1 µM", "setting": "kinome (kinase panel) [3]", "result": 62, "unit": "%"}, {"measurement": "remaining binding at 1 µM", "setting": "kinome (kinase panel) [4]", "result": 100, "unit": "%"}, {"measurement": "remaining binding at 1 µM", "setting": "kinome (kinase panel) [5]", "result": 86, "unit": "%"}, {"measurement": "remaining binding at 1 µM", "setting": "kinome (kinase panel) [6]", "result": 100, "unit": "%"}, {"measurement": "remaining binding at 1 µM", "setting": "kinome (kinase panel) [7]", "result": 4.8, "unit": "%"}, {"measurement": "remaining binding at 1 µM", "setting": "kinome (kinase panel) [8]", "result": 100, "unit": "%"}, {"measurement": "remaining binding at 1 µM", "setting": "kinome (kinase panel) [9]", "result": 97, "unit": "%"}, {"measurement": "remaining binding at 1 µM", "setting": "kinome (kinase panel) [10]", "result": 84, "unit": "%"}, {"measurement": "remaining binding at 1 µM", "setting": "kinome (kinase panel) [11]", "result": 83, "unit": "%"}, {"measurement": "remaining binding at 1 µM", "setting": "kinome (kinase panel) [12]", "result": 97, "unit": "%"}, {"measurement": "remaining binding at 1 µM", "setting": "kinome (kinase panel) [13]", "result": 96, "unit": "%"}, {"measurement": "remaining binding at 1 µM", "setting": "kinome (kinase panel) [14]", "result": 23, "unit": "%"}, {"measurement": "remaining binding at 1 µM", "setting": "kinome (kinase panel) [15]", "result": 28, "unit": "%"}, {"measurement": "remaining binding at 1 µM", "setting": "kinome (kinase panel) [16]", "result": 63, "unit": "%"}, {"measurement": "remaining binding at 1 µM", "setting": "kinome (kinase panel) [17]", "result": 99, "unit": "%"}, {"measurement": "remaining binding at 1 µM", "setting": "kinome (kinase panel) [18]", "result": 100, "unit": "%"}, {"measurement": "remaining binding at 1 µM", "setting": "kinome (kinase panel) [19]", "result": 100, "unit": "%"}, {"measurement": "remaining binding at 1 µM", "setting": "kinome (kinase panel) [20]", "result": 77, "unit": "%"}, {"measurement": "remaining binding at 1 µM", "setting": "kinome (kinase panel) [21]", "result": 38, "unit": "%"}, {"measurement": "remaining binding at 1 µM", "setting": "kinome (kinase panel) [22]", "result": 56, "unit": "%"}, {"measurement": "remaining binding at 1 µM", "setting": "kinome (kinase panel) [23]", "result": 91, "unit": "%"}, {"measurement": "remaining binding at 1 µM", "setting": "kinome (kinase panel) [24]", "result": 100, "unit": "%"}, {"measurement": "remaining binding at 1 µM", "setting": "kinome (kinase panel) [25]", "result": 96, "unit": "%"}, {"measurement": "remaining binding at 1 µM", "setting": "kinome (kinase panel) [26]", "result": 91, "unit": "%"}, {"measurement": "remaining binding at 1 µM", "setting": "kinome (kinase panel) [27]", "result": 73, "unit": "%"}, {"measurement": "remaining binding at 1 µM", "setting": "kinome (kinase panel) [28]", "result": 67, "unit": "%"}, {"measurement": "remaining binding at 1 µM", "setting": "kinome (kinase panel) [29]", "result": 1.6, "unit": "%"}, {"measurement": "remaining binding at 1 µM", "setting": "kinome (kinase panel) [30]", "result": 91, "unit": "%"}, {"measurement": "remaining binding at 1 µM", "setting": "kinome (kinase panel) [31]", "result": 21, "unit": "%"}, {"measurement": "remaining binding at 1 µM", "setting": "kinome (kinase panel) [32]", "result": 100, "unit": "%"}, {"measurement": "remaining binding at 1 µM", "setting": "kinome (kinase panel) [33]", "result": 100, "unit": "%"}]}]}
